Read-outs that look alike come from different tables or passages of the source.
What was measured:
[1] = system: primary human skin fibroblast cells; test: CellTiter-Glo cell viability assay on primary skin fibroblast cells; format: cell-based; conditions: GnRHR-negative cells, 72 h treatment, read-out: IC50, viability inhibition on primary human skin fibroblast cells
Procedure: Primary human skin fibroblast cells (fibroblast cells) were gifted by the Institute of Genomic Medicine and Rare Disorders, Semmelweis University (Budapest, Hungary). Fibroblast cells were cultured in Dulbecco’s modified Eagle’s medium (DMEM) (Thermo Fisher Scientific, cat. no.: 41965039) supplemented with 10% FBS (Thermo Fisher Scientific), 1% penicillin–streptomycin (Thermo Fisher Scientific, cat. no.: 15070063) and 1% MEM Non-Essential Amino Acids Solution (Thermo Fisher Scientific, cat. no.: 11140035). Cell cultures were grown in vitro at 37 °C, 95% air and 5% CO2 atmosphere.
(§1) Effects of the synthesized compounds on EBC-1 and fibroblast cell viability was measured via CellTiter-Glo® luminescent cell viability assay (Promega, Madison, WI, USA) according to the manufacturer’s instructions. Briefly, cells were plated at 1000 cells/well onto a flat-bottomed, white 96 well plate (BRANDplates, cat. no.: 781965). After 24 h, cells were treated for 72 h with either the desired 4-fold serial diluted compound concentrations or vehicle (0.2% DMSO) control. After the treatment, the luminescence signal was recorded using a microplate reader (BioTek Synergy 2 Multi-Mode Reader, BioTek, Winooski, VT, USA). Dose–response curves (using a non-linear regression model) were generated and IC50 values were determined using Graph Pad Prism 5.02 software (GraphPad Software, San Diego, CA, USA).

[2] = system: EBC-1 NSCLC cells; test: CellTiter-Glo cell viability assay on EBC-1 cells; format: cell-based; conditions: for IC50: CellTiter-Glo, 72 h treatment, read-out: IC50, viability inhibition on EBC-1 cells
Procedure: EBC-1 cell line was obtained from the Japanese Collection of Research Bioresources Cell Bank (JCRB, Solana Beach, CA 92075 USA) and cultured in Eagle’s minimum essential medium (EMEM) (Lonza, Basel, Switzerland, cat. no.: BE12-611F,) supplemented with 1% MycoZap (Lonza, cat. no.: VZA-2012) and 10% fetal bovine serum (FBS) (Thermo Fisher Scientific, Waltham, MA, USA, cat. no.: 10500-064).
as §1

[3] = target: T1, human pituitary GnRHR (Homo sapiens, UniProt P30968); test: Radioligand competition assay, [125I]-[D-Trp6]-GnRH-I displacement, human pituitary membranes; conditions: inhibition of [125I]-[D-Trp6]-GnRH-I binding to membranes
T1 construct: Normal human pituitary (anterior lobe) tissue was collected at autopsy; from tissue; host or cells: normal human pituitary (anterior lobe), autopsy tissue, membranes
T1 sequence (P30968 1-328): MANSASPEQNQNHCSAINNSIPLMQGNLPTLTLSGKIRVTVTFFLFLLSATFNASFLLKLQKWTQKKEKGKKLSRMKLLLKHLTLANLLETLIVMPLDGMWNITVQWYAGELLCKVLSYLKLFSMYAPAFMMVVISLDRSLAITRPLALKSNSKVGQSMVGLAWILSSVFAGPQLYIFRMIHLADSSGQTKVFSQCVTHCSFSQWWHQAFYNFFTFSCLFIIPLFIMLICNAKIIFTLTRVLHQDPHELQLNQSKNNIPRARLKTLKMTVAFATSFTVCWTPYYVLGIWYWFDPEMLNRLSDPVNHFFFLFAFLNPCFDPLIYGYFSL
Procedure: (§2) The collection and use of the tissue samples for our studies were approved by the local Institutional Ethics Committee. Normal human pituitary (anterior lobe) tissue was collected at autopsy and the human prostate cancer specimen was obtained from a patient at the time of initial surgical treatment. The ligand competition assay was performed as described previously.

[4] = system: c-Met; test: c-Met phosphorylation in EBC-1 cells by western blot; format: cell-based; conditions: 6 h
Procedure: To analyze the effect of the compounds on c-Met phosphorylation, EBC-1 cells were seeded in six well plates and grown to 90% confluence. […] Cells were incubated with the compounds for 6 h at 37 °C in a CO2 incubator. After the incubation, western blot analysis was performed. To investigate GnRH-R protein level, cells were seeded in six well plates and grown to 90% confluence, then western blot analysis was applied.
Bands were visualized via Enhanced Chemiluminescence detection system (Western Lightning ECL Pro, PerkinElmer, Waltham, MA, USA, cat. no.: NEL122001EA).

[5] = target: T2, recombinant c-Met kinase (Homo sapiens, UniProt P08581); test: In vitro inhibition of recombinant c-Met kinase (ADP-Glo); format: biochemical; conditions: recombinant kinase assay, ATP 3.1 µM
T2 construct: purchased ProQinase 0171-0000-1
T2 sequence (P08581 25-1390): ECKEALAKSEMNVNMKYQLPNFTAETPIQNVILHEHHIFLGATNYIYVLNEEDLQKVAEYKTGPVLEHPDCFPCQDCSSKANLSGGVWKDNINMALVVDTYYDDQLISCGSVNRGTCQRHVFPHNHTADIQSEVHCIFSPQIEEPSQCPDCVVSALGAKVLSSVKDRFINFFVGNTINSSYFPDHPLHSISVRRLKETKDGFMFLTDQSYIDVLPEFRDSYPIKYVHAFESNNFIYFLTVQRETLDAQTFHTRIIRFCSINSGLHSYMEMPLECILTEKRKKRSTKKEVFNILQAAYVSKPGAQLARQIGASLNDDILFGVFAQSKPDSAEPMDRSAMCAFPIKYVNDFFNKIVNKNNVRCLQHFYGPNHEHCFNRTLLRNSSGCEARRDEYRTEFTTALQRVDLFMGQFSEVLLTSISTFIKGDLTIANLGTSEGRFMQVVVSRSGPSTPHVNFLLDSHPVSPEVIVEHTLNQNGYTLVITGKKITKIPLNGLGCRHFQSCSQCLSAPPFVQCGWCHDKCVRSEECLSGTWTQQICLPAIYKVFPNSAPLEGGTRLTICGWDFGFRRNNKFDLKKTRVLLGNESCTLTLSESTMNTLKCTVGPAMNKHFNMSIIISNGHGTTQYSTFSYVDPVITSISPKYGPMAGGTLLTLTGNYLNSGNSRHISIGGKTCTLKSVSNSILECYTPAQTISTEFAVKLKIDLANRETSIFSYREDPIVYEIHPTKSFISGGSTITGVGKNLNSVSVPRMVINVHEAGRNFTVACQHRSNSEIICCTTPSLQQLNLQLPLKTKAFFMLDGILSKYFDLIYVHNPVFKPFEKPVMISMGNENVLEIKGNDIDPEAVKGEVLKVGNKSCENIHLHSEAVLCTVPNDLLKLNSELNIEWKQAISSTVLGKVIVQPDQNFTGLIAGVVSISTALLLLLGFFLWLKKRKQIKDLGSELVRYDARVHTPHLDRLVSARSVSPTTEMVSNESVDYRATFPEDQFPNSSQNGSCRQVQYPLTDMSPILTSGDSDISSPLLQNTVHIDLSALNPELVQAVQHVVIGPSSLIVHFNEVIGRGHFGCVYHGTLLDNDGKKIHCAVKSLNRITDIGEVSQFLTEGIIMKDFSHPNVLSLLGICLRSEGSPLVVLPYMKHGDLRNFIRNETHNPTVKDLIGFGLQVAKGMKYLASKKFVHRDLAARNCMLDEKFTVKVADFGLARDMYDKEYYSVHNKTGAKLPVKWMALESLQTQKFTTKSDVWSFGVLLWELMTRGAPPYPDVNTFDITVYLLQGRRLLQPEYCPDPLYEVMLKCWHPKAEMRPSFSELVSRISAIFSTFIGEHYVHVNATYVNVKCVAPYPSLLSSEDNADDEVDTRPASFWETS
Procedure: Reaction buffer was prepared according to ProQinase’s recommendation [60 mM HEPES, 3 mM MgCl2, 3 mM MnCl2, 3 µM Na3VO4, 1.2 mM DTT (dithiothreitol), and 50 µg/mL PEG20,000, (reagents were obtained from Merck Millipore)]. Enzyme activity was assayed in 384 well, low-volume white microtiter plates (Corning®, Merck Millipore, cat. no.: CLS4513-50EA). Compounds were preincubated with c-Met kinase for 30 min at room temperature and reactions were started by adding the substrate–ATP mixture. Reaction time was 60 min at room temperature. Enzyme reaction was stopped using ADP-Glo™ Kinase Assay (Promega, cat. no.: V6930) according to the manufacturer’s instructions (40 min incubation with ADP-Glo™ Reagent, 30 min incubation with Kinase detection reagent at 25 °C). All measurements were performed using a Synergy 2 Multi-Mode Reader (BioTek, Winooski, VT, USA). Raw enzyme activity values were converted to relative activity data using positive and negative controls.

[6] = pH-dependent artificial membrane permeability assay (PAMPA); format: in vitro ADME
Procedure: An artificial-membrane-based system (BD Gentest™ Pre-Coated PAMPA plate, Corning, cat. no.: 353015) was used to determine the pH-dependent membrane permeability of the compounds. In this method, the protocol provided by the manufacturer was followed with minor modifications. Four different pH values were applied per compound. […] Stock solutions of compounds in DMSO were diluted to 100 µM in each PBS. PBS solutions were loaded into the donor wells, but the acceptor wells were filled with physiological PBS (pH = 7.4). The system was gently shaken (BioSan Thermo-Shaker PST-60HL) for 5 h at 25 °C. […] Calculation formula and the calculated data are available in the Supplementary Information, Section S4. page 11: S4. PAMPA Calculation formula: −ln(1 − CaCe) Pe = 1 1 A ∗ (Vd + Va) ∗ t Ce = (Cd ∗ Vd + Ca∗ Va)/(Vd + Va) R = 1 − Cd ∗ Vd + Ca∗ Va C0 ∗ Vd Pe = permeability (cm/s) R = mass retention (percentage loss of compound due to non-specific binding to the plastic surfaces during the permeation assay) A = membrane area (cm2) c0 = initial donor concentration ca = final acceptor concentration cd = final donor concentration ce = equilibrium concentration t = incubation time (sec) Va = acceptor volume (mL) Vd = donor volume (mL)

[7] = target: T3, prostate cancer GnRHR (Homo sapiens, UniProt P30968); test: Radioligand competition assay, [125I]-[D-Trp6]-GnRH-I displacement, human prostate cancer membranes; conditions: inhibition of [125I]-[D-Trp6]-GnRH-I binding to membranes
T3 construct: the human prostate cancer specimen was obtained from a patient at the time of initial surgical treatment; from tissue; host or cells: human prostate cancer surgical specimen, membranes
T3 sequence (P30968 1-328): T1 sequence (P30968 1-328)
Procedure: as §2

[8] = system: EBC-1 cells; test: Galectin puncta assay for lysosomal membrane permeabilization; format: cell-based; conditions: 8 h
Procedure: EBC-1 cells were seeded on eight well Ibidi® μ-Slide microscopic slides (2 × 10^4 cells/well) and allowed to adhere for 48 h. […] Untreated (0.2% DMSO in EMEM) cells were used as a negative control. Cells were incubated with the compounds for 8 h at 37 °C in a CO2 incubator. Cells were fixed with 4% paraformaldehyde for 10 min and washed twice with PBS (Lonza). Cells were permeabilized with 0.1% (v/v) Triton X-100 PBS solution for 10 min. After blocking (5% v/v BSA in PBS), cells were incubated with anti-galectin 3 (Merck, cat. no.: SAB4501746, dilution: 1:100) and anti-galectin-1 (Santa Cruz Biotechnology, cat. no.: sc-166618, dilution: 1:100) primary antibodies overnight at 25 °C, followed by Alexa-Fluor-488-conjugated (Jackson ImmunoResearch., cat. no.: 111-545-003, dilution: 1:500) and Alexa-Fluor-594-conjugated (Jackson ImmunoResearch, cat. no.: 115-585-003, dilution: 1:250) secondary antibodies for 1 h at 25 °C. DRAQ5 (10 µM) was added to the cells for 15 min. Cells were washed three times with PBS and a few drops of mounting media (Merck Millipore) were added. Images of cells were acquired with a confocal laser microscope (Zeiss Confocal LSM 710). [Objective: Plan-Apochromat 63x/1.40 Oil DIC M27. Pinhole: 1.01 AU. Laser wavelength: 488 nm, 543 nm and 633 nm. Detection wavelength: 504–539 nm; 602–651 nm; 694–758 nm)].

[9] = Stability in EMEM cell culture medium at 37 °C (HPLC-UV); format: in vitro ADME; conditions: for stability in cell culture medium: EMEM, 37 °C, up to 72 h
Procedure: Stock solutions of compounds in DMSO were diluted to 10 µM in complemented EMEM (Lonza). Samples were incubated for 2, 6, 24, and 72 h at 37 °C. After the incubation, acetonitrile (VWR, cat. no.: 83639.320) was added to the solutions (1:1 ratio, to achieve 50% acetonitrile content). The samples were vortexed and centrifuged (13,000× g, 10 min). Supernatants were measured by HPLC-UV. HPLC method and chromatograms are available in the Supplementary Information. Stability was calculated using the external standard method. Decay curves were generated and half-life was calculated by GraphPad Prism 5.02 software.

stability in cell culture medium [9]	Compound	IC50 ([1]; Homo sapiens, Skin fibroblast) [nM]	IC50 ([2]; Homo sapiens, EBC-1) [nM]	IC50 [3] [nM]	inhibition of c-Met phosphorylation in EBC-1 cells ([4]; 100 nM)	IC50 [5] [nM]	IC50 [7] [nM]	other results
	C[C@@H](Oc1cc(-c2cnn(C3CCNCC3)c2)cnc1N)c1c(Cl)ccc(F)c1Cl [crizotinib*]	2600	28					
	CC(C)C[C@H](NC(=O)[C@@H](CCCCNC(=O)CCCC(=O)N1CCC(n2cc(-c3cnc(N)c(OC(C)c4c(Cl)ccc(F)c4Cl)c3)cn2)CC1)NC(=O)[C@H](Cc1ccc(O)cc1)NC(=O)[C@H](CO)NC(=O)[C@H](Cc1c[nH]c2ccccc12)NC(=O)[C@H](Cc1c[nH]cn1)NC(=O)[C@@H]1CCC(=O)N1)C(=O)N[C@@H](CCCNC(=N)N)C(=O)N1CCC[C@H]1C(=O)NCC(N)=O (mixture of isomers) [[D-Lys^6(crizotinib*)]–GnRH-I]			34.6 ± 4.2	no significant inhibitory effect	163	39.5 ± 1.7	inhibition of c-Met phosphorylation in EBC-1 cells ([4]; 1 µM): moderate; inhibition of c-Met phosphorylation in EBC-1 cells ([4]; 10 µM): abolished; PAMPA membrane permeability ([6]; PAMPA, pH 4.8): not to be membrane-permeable; viability inhibition effect on EBC-1 cells ([2]; highest 10 µM concentration): only a moderate effect; viability inhibition effect on EBC-1 cells ([2]; submicromolar range): did not show any significant effect; galectin puncta formation ([8]; 0.1 µM): negligable; galectin puncta formation ([8]; 1 µM): clearly detectable; galectin puncta formation ([8]; 10 µM and 100 µM): more and more significant
stable	CC(C)C[C@H](NC(=O)[C@@H](CCCCN)NC(=O)[C@H](Cc1ccc(O)cc1)NC(=O)[C@H](CO)NC(=O)[C@H](Cc1c[nH]c2ccccc12)NC(=O)[C@H](Cc1cnc[nH]1)NC(=O)[C@@H]1CCC(=O)N1)C(=O)N[C@@H](CCCNC(=N)N)C(=O)N1CCC[C@H]1C(=O)NCC(N)=O [[D-Lys^6]–GnRH-I, reference compound]							
	Cn1c(=O)c2c(ncn2C)n(C)c1=O [caffeine, reference compound]							PAMPA permeability over the investigated pH range ([6]; PAMPA): remained constant
stable	CC(Oc1cc(-c2cnn(C3CCN(CCO)CC3)c2)cnc1N)c1c(Cl)ccc(F)c1Cl (centres unmarked) [MJ55*]	2600	23		completely inhibited	39		PAMPA permeability ([6]; early endosome-/lysosome-like pH (pH = 6.0 and 4.8)): near zero
	CC(C)C[C@H](NC(=O)[C@@H](CCCCNC(=O)CCCC(=O)OCCN1CCC(n2cc(-c3cnc(N)c(OC(C)c4c(Cl)ccc(F)c4Cl)c3)cn2)CC1)NC(=O)[C@H](Cc1ccc(O)cc1)NC(=O)[C@H](CO)NC(=O)[C@H](Cc1c[nH]c2ccccc12)NC(=O)[C@H](Cc1c[nH]cn1)NC(=O)[C@@H]1CCC(=O)N1)C(=O)N[C@@H](CCCNC(=N)N)C(=O)N1CCC[C@H]1C(=O)NCC(N)=O (stereo partly drawn) [[D-Lys^6(MJ55*)]–GnRH-I]			21.7 ± 1.4	blocked c-Met phosphorylation	~147	29.7 ± 3.1	IC50 [1]: 3000 nM; IC50 [2]: 90 nM; half-life ([9]; half-life of the ester bond / conjugate in EMEM): ~8 h
